Data reported in US20140315933A1, “CHEMICAL COMPOUNDS” (Pfizer Limited, priority 2013, published 2014).
Counter-ions that a name gives are not always drawn.

These compounds were tested against T1, URAT-1 transporter (Homo sapiens, UniProt Q96S37) (assay: URAT-1 inhibitor activity: [14C]-uric acid uptake into CHO-URAT1(L)GFP#8 (CHO#8) cells, scintillation proximity).
T1 construct: expressed in transfected cells
T1 sequence (Q96S37 with tags, fused parts or gaps): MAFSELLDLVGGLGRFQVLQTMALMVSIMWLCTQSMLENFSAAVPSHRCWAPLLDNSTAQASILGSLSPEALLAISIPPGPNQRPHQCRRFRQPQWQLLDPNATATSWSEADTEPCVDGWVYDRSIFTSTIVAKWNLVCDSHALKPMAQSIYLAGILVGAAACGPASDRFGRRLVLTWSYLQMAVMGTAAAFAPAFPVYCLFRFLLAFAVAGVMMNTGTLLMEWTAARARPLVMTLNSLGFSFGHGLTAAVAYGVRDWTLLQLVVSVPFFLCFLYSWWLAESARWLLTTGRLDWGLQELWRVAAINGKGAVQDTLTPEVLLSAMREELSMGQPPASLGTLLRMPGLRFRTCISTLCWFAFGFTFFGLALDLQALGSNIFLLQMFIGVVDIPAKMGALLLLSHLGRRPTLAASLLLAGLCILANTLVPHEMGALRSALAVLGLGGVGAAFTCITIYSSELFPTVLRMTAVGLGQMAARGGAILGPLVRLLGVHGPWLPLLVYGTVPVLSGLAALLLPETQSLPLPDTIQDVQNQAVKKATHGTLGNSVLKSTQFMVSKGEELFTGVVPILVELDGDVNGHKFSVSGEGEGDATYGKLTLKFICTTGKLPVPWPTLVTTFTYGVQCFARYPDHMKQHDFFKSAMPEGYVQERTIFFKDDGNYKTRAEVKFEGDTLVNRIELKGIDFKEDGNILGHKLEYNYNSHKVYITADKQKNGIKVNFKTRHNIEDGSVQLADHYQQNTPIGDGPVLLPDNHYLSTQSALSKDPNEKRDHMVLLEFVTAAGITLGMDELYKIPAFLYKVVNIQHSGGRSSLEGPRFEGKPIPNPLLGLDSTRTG
Type: cell-based
Procedure, shortened: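 CHO cells stably expressing human URAT1 long isoform C-terminally fused to eGFP, preincubated 1 hour in chloride-containing buffer, then 15 minutes with compound (0–10 μM, 0.25% DMSO) in chloride-free buffer pH 7.4. [14C]-uric acid at 30 nM final added; uptake read by scintillation proximity after three hours at room temperature, dark.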
For `O=S(=O)(Nc1nccs1)c1ccc(Oc2ccc(Cl)cc2C(F)(F)F)c(F)c1` [Example 71, 4-[4-chloro-2-(trifluoromethyl)phenoxy]-3-fluoro-N-(1,3-thiazol-2-yl)benzenesulfonamide], the IC50 was > 10 µM.
With `N#Cc1cc(S(=O)(=O)Nc2ncc(F)s2)ccc1Oc1ccccc1Cl` [Example 96, 4-(2-chlorophenoxy)-3-cyano-N-(5-fluoro-1,3-thiazol-2-yl)benzenesulfonamide] the IC50 was 0.675 µM.
In the case of `N#Cc1cc(S(=O)(=O)Nc2ncc(F)s2)ccc1Oc1ccc(F)c(Cl)c1` [Example 111, 4-(3-chloro-4-fluorophenoxy)-3-cyano-N-(5-fluoro-1,3-thiazol-2-yl)benzenesulfonamide], the IC50 is reported as 0.871 µM.
`Cc1cc(S(=O)(=O)Nc2nncs2)c(F)cc1Oc1ccc(F)c(F)c1` [compound 200] was tested, and the IC50 was > 10 µM.
With `Cc1ccc(Cl)cc1Oc1ccc(S(=O)(=O)Nc2ncns2)cc1C#N` [Example 40, 4-(5-chloro-2-methylphenoxy)-3-cyano-N-(1,2,4-thiadiazol-5-yl)benzenesulfonamide] the IC50 was > 2.92 µM.
For `Cc1cc(Oc2cc(F)c(S(=O)(=O)Nc3nncs3)cc2Cl)ccc1F` [compound 322], the IC50 was 2.99 µM.
`Cc1nnc(NS(=O)(=O)c2ccc(Oc3ccc(C#N)c(Cl)c3)c(C#N)c2)s1` [Example 340, 4-(3-chloro-4-cyanophenoxy)-3-cyano-N-(5-methyl-1,3,4-thiadiazol-2-yl)benzenesulfonamide] was tested, and the IC50 was 0.484 µM.
Compound `COc1ccc(C)c(Oc2cc(F)c(S(=O)(=O)Nc3nncs3)cc2Cl)c1` [compound 327] has an IC50 of 0.619 µM.
With `N#Cc1cc(S(=O)(=O)Nc2ncns2)ccc1Oc1cc(F)ccc1F` [Example 50, 3-cyano-4-(2,5-difluorophenoxy)-N-(1,2,4-thiadiazol-5-yl)benzenesulfonamide] the IC50 was 2.55 µM.
Compound `N#Cc1cc(S(=O)(=O)Nc2ncc(F)s2)ccc1Oc1cc(F)c(F)cc1F` [Example 113, 3-cyano-N-(5-fluoro-1,3-thiazol-2-yl)-4-(2,4,5-trifluorophenoxy)benzenesulfonamide] has an IC50 of 1.12 µM.
Compound `N#Cc1cccc(Oc2ccc(S(=O)(=O)Nc3ncc(F)s3)cc2C#N)c1` [Example 132, 3-cyano-4-(3-cyanophenoxy)-N-(5-fluoro-1,3-thiazol-2-yl)benzenesulfonamide] has an IC50 of 2.6 µM.
With `COc1cccc(Oc2ccc(S(=O)(=O)Nc3ncns3)cc2C#N)c1C` [compound 293] the IC50 was > 6.15 µM.
For `Cc1cc(NS(=O)(=O)c2ccc(Oc3ccc(C#N)c(Cl)c3)c(C#N)c2)on1` [Example 59, 4-(3-chloro-4-cyanophenoxy)-3-cyano-N-(3-methyl-1,2-oxazol-5-yl)benzenesulfonamide], the IC50 was > 10 µM.
`CC(C)(C)c1ccc(Oc2ccc(S(=O)(=O)Nc3ncns3)cc2C#N)c(Cl)c1` [Example 38, 4-(4-tert-butyl-2-chlorophenoxy)-3-cyano-N-(1,2,4-thiadiazol-5-yl)benzenesulfonamide] was tested, and the IC50 was > 7.1 µM.
In the case of `CCc1ccccc1Oc1ccc(S(=O)(=O)Nc2ncc(F)s2)cc1C#N` [Example 108, 3-cyano-4-(2-ethylphenoxy)-N-(5-fluoro-1,3-thiazol-2-yl)benzenesulfonamide], the IC50 is reported as 0.345 µM.
With `N#Cc1ccc(OC(F)F)c(Oc2cc(F)c(S(=O)(=O)Nc3ncns3)cc2Cl)c1` [Example 156, 5-chloro-4-[5-cyano-2-(difluoromethoxy)phenoxy]-2-fluoro-N-(1,2,4-thiadiazol-5-yl)benzenesulfonamide diethylamine salt] the IC50 was 3.43 µM.
For `O=S(=O)(Nc1nccs1)c1ccc(Oc2ccc(C(F)(F)F)cc2C(F)(F)F)c(F)c1` [Example 6, 4-[2,4-bis(trifluoromethyl)phenoxy]-3-fluoro-N-(1,3-thiazol-2-yl)benzenesulfonamide], the IC50 was > 10 µM.
In the case of `COc1ccc(Oc2cc(F)c(S(=O)(=O)Nc3nncs3)cc2Cl)cc1Cl` [compound 320], the IC50 is reported as > 7.61 µM.
Compound `N#Cc1cc(S(=O)(=O)Nc2nccs2)ccc1Oc1ccc(Br)nc1` [compound 171] has an IC50 of 0.671 µM.
With `COc1cc(F)c(F)cc1Oc1ccc(S(=O)(=O)Nc2ncns2)cc1C#N` [compound 270] the IC50 was 0.957 µM.
